Assay results reported in patent EP1247803A2, “Indolinone compounds suitable for modulation of protein kinases” (Sugen, Inc., priority 1996, dated 1998).

Legend:
PDGF-R = PDGF-R (Homo sapiens, UniProt P09619); test: PDGF-R ELISA; format: cell-based
Description: A PDGF-R ELISA is described in International Patent Publication No. WO 96/40116, published December 19, 1996 by Tang et al.

EGFR = target: T1, EGFR (Homo sapiens, UniProt P00533); test: EGFR ELISA assay (in vitro kinase activity, EGFR captured from A431 cell lysate); format: biochemical; design: concentration or dose not given beside the values
T1 construct: Add 7 ug A431 cell lysate per well (EGFR source); endogenous in cells; host or cells: A431
How it was run: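 Receptor autophosphorylation was read by ELISA: anti-phosphotyrosine serum and an HRP-linked secondary with ABTS substrate, absorbance at 410 nm (reference 630 nm). The reaction ran 5 min with 3 µM ATP and 5 mM MnCl2 and was quenched by 20 mM EDTA. Compounds were first incubated 30 min with antibody-captured EGFR from A431 cell lysate.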

MET = MET biochemical kinase assay; design: species or system human; concentration or dose not given beside the values
How it was run: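 In this format, tyrosine phosphorylation of plate-captured human MET is followed in vitro after compound addition in ATP/divalent-cation buffer, detected by anti-phosphotyrosine-HRP with TMB substrate.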

Chain of PDGF-R (P09619 33-1106, species assumed): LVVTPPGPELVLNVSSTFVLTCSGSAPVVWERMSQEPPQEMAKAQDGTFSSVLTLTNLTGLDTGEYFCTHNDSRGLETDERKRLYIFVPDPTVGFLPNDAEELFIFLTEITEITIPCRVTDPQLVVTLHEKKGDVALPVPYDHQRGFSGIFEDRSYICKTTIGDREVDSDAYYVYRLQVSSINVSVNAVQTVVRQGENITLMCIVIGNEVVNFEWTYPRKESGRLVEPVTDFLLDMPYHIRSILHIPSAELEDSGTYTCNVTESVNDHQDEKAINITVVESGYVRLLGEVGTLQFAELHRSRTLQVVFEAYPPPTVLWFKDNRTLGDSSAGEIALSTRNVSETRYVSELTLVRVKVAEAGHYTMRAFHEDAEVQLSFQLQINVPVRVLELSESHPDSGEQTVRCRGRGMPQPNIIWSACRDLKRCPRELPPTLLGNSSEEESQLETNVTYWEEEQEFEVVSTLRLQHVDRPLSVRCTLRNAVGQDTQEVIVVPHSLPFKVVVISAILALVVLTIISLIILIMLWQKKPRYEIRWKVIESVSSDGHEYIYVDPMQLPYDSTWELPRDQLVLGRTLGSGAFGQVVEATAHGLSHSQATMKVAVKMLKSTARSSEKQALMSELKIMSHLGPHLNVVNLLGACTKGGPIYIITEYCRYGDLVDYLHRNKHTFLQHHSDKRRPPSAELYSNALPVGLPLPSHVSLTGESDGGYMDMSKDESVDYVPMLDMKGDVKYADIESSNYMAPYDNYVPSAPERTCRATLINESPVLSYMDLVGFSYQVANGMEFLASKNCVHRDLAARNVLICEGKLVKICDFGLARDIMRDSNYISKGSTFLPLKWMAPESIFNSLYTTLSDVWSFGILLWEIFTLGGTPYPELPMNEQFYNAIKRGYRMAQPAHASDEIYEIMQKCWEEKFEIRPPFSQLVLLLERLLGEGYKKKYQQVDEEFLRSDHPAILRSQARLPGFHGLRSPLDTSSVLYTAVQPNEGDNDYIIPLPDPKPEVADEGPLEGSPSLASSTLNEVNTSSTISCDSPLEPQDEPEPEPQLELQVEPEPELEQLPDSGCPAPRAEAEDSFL
T1 sequence (P00533 25-1210): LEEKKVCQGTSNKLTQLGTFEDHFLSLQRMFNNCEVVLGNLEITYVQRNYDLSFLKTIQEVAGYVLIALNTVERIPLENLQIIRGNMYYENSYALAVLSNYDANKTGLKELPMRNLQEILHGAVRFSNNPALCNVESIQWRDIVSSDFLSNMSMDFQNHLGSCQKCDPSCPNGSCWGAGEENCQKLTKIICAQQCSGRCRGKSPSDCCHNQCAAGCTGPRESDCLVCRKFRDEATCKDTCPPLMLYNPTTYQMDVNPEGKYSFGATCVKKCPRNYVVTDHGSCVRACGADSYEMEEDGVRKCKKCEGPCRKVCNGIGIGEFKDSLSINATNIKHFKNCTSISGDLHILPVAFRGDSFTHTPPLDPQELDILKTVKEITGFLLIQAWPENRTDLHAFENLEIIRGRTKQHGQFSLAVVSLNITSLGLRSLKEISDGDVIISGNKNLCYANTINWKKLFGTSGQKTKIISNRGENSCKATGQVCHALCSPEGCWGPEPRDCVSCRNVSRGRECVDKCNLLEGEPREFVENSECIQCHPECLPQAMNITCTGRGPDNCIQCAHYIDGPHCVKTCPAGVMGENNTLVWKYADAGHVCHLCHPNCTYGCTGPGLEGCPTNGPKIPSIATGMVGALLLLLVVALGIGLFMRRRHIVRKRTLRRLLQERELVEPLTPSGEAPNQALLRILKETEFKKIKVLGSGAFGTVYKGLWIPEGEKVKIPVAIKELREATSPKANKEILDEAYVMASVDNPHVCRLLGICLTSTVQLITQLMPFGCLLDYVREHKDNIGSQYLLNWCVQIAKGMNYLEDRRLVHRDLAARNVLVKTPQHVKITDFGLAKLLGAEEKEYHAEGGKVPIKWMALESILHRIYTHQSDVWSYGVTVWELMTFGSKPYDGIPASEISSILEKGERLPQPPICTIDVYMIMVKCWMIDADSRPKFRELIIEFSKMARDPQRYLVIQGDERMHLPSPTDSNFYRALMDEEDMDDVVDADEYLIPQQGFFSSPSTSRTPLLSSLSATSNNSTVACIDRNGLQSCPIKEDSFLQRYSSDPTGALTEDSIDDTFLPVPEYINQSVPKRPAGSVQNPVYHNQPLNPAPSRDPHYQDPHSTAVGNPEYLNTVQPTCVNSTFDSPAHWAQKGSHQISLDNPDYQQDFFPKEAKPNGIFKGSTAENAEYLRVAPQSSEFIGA

Structure (SMILES)	PDGF Kinase %Inhibition (PDGF-R) [%]	Biochem EGFR %Inhibition (EGFR) [%]	Met Kinase % Inhibition (MET) [%]
COc1c(Cl)cc(C=C2C(=O)Nc3ccc(S(=O)(=O)Nc4ccc(C(F)(F)F)cc4)cc32)cc1C(C)(C)C [10732/E09]	46.7	-7.2	18.1
CC(C)(C)c1cc(C=C2C(=O)Nc3ccc(S(=O)(=O)N4CCOCC4)cc32)cc(Cl)c1OCc1ccccc1 [10732/F10]	15.9	0.8	65.1
COc1c(I)cc(C=C2C(=O)Nc3ccc(S(=O)(=O)N4CCOCC4)cc32)cc1C(C)(C)C [10732/F11]	77.5	-21.5	75.2
CC(C)(C)c1cc(C=C2C(=O)Nc3c(Br)cc(Br)cc32)cc(C(C)(C)C)c1OCc1ccccc1 [10733/A05]	-4.0	55.2	18.2
CC(C)(C)c1cc(C=C2C(=O)Nc3ccc(S(=O)(=O)Nc4ccc(C(F)(F)F)cc4)cc32)cc(Br)c1OCc1ccccc1 [10732/E08]	32.6	-21.7	29.4
CNS(=O)(=O)c1ccc2c(c1)C(=Cc1cc(Br)cc(OC)c1O)C(=O)N2 [10733/D08]	42.3	38.3	80.0
CC(C)(C)c1cc(C=C2C(=O)Nc3ccc(S(=O)(=O)Nc4ccc(C(F)(F)F)cc4)cc32)cc(Cl)c1OCc1ccccc1 [10732/E10]	35.6	-3.3	1.6
COc1ccc(C=C2C(=O)Nc3ccc(S(=O)(=O)Nc4ccc(C(F)(F)F)cc4)cc32)cc1C(C)(C)C [10732/E05]	41.1	-17.0	2.2
Cc1c(Br)ccc2c1C(=Cc1cc(C(C)(C)C)c(OCc3ccccc3)c(C(C)(C)C)c1)C(=O)N2 [10733/C05]	11.1	17.2	23.2
COc1cc(Br)cc(C=C2C(=O)Nc3ccc(Br)c(C)c32)c1O [10733/C08]	-3.6	65.8	85.7
COc1c(C)cc(C=C2C(=O)Nc3ccc(I)cc32)cc1C [10733/B06]	-9.2	43.6	71.4
COc1c(C(C)C)cc(C=C2C(=O)Nc3ccc(S(=O)(=O)Nc4ccc(C(F)(F)F)cc4)cc32)cc1C(C)C [10732/E03]	48.7	-1.6	3.9
O=C1Nc2ccc(CCCl)cc2C1=CC(c1cccs1)C(F)(F)F (stereo not drawn) [10732/G02]	10.3	-0.7	39.5
O=C1Nc2ccc(I)cc2C1=Cc1cc(Br)ccc1O [10733/B09]	7.0	21.1	64.5
COc1c(Cl)cc(C=C2C(=O)Nc3ccc(CCCl)cc32)cc1C(C)(C)C [10732/G09]	9.8	-34.8	33.9
CC(C)c1cc(C=C2C(=O)Nc3ccc(S(=O)(=O)Nc4ccc(C(F)(F)F)cc4)cc32)cc(C(C)C)c1Oc1ccccc1 [10732/E04]	29.5	-10.6	8.2
CC(C)(C)c1cc(C=C2C(=O)Nc3ccc(I)cc32)cc(C(C)(C)C)c1OCc1ccccc1 [10733/B05]	27.3	26.7	61.3
